target: microsomal triglyceride transfer protein (MTP) (Homo sapiens, UniProt P55157); assay: MTP assay; assay type: biochemical; settings: not given
Excerpt: (§1) The corresponding relevant subject matter of said PCT application is herewith incorporated by reference into the present specification.

Chain of microsomal triglyceride transfer protein (MTP) (P55157 19-894, species assumed): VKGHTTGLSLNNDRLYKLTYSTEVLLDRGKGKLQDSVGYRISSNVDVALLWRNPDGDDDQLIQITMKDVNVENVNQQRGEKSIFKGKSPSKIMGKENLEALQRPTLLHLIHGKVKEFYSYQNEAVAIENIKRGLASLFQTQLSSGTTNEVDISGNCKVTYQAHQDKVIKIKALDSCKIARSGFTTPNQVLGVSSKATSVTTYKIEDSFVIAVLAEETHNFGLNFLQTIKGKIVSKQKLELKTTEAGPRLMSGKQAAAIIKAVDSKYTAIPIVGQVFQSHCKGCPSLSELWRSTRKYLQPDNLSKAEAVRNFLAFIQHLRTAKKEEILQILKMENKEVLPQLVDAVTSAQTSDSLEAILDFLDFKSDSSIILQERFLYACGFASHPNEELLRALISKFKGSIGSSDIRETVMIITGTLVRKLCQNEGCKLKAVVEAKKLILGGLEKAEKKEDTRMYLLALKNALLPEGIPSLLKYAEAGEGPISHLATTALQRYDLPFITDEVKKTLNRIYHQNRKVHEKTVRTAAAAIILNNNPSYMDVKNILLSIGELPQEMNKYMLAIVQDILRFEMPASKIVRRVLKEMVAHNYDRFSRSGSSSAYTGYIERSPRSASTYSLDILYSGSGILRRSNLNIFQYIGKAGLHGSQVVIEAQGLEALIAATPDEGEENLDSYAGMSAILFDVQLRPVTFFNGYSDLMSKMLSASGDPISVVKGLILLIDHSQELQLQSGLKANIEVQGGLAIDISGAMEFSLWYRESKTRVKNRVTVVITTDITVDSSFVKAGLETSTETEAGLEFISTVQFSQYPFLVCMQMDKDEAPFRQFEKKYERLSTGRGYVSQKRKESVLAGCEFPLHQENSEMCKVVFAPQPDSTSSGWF
Chain of microsomal triglyceride transfer protein (MTP) (P07237 18-508 partner, species assumed): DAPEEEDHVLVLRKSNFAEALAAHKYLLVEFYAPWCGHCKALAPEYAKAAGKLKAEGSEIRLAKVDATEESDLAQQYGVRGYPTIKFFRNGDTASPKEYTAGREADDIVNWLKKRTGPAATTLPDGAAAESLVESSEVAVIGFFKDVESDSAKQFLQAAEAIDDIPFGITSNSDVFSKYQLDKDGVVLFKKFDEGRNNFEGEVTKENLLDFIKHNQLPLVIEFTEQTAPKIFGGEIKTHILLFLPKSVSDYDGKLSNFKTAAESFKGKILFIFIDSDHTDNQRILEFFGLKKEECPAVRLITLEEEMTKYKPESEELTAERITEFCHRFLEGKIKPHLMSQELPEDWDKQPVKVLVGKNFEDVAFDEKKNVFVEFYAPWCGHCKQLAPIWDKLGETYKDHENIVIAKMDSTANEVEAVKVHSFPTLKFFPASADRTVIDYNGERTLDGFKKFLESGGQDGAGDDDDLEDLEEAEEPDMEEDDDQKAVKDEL

IC50 [nM] | SMILES
~40 | COC(=O)N1CCN([C@@H]2Cc3ccc(NC(=O)c4cccc(C)c4-c4ccc(C(F)(F)F)cc4)cc3C2)CC1 [Example 14, (R)-6-Methyl-4′-trifluoromethyl-1,1′-biphenyl-N-[2-[4-(methoxycarbonyl)-piperazino]indan-5-yl]-2-carboxamide]

test system: not given; assay: not given; settings: not given

SMILES | melting point [°C]
COC(=O)N1CCN(C2Cc3ccc(NC(=O)c4cccc(C(F)(F)F)c4-c4ccc(C(F)(F)F)cc4)cc3C2)CC1 (stereo not drawn) [Example 5] | 210 to 212
COC(=O)N1CCN(C2Cc3ccc(NC(=O)c4ccccc4-c4ccc(C(F)(F)F)cc4)cc3C2)CC1 (stereo not drawn) [Example 6] | 204 to 206
Cc1cccc(C(=O)Nc2ccc3c(c2)CC(N2CCOCC2)C3)c1-c1ccc(C(F)(F)F)cc1 (stereo not drawn) [Example 7] | 201 to 204
O=C(Nc1ccc2c(c1)CC(N1CCOCC1)C2)c1ccccc1-c1ccc(C(F)(F)F)cc1 (stereo not drawn) [Example 8] | 191 to 194
COC(=O)C1CCN(C2Cc3ccc(NC(=O)c4cccc(C)c4-c4ccc(C(F)(F)F)cc4)cc3C2)CC1 (stereo not drawn) [Example 9] | 191 to 195
COC1CCN(C2Cc3ccc(NC(=O)c4cccc(C)c4-c4ccc(C(F)(F)F)cc4)cc3C2)CC1 (stereo not drawn) [Example 10] | 197 to 199
Cc1cccc(C(=O)Nc2ccc3c(c2)CC(N2CCC4(CC2)OCCO4)C3)c1-c1ccc(C(F)(F)F)cc1 (stereo not drawn) [Example 11] | 202 to 203
Cc1cccc(C(=O)Nc2ccc3c(c2)CC(N2CCC(C)CC2)C3)c1-c1ccc(C(F)(F)F)cc1 (stereo not drawn) [Example 12] | 219 to 221
COC(=O)N1CCN(C2Cc3ccc(NC(=O)c4cccc(OC)c4-c4ccc(F)cc4)cc3C2)CC1 (stereo not drawn) [Example 13] | 132 to 134
CCCC(=O)N1CCN(C2Cc3ccc(NC(=O)c4cccc(C)c4-c4ccc(C(F)(F)F)cc4)cc3C2)CC1 (stereo not drawn) [Example 21] | 173 to 176
CC(=O)N1CCN(C2Cc3ccc(NC(=O)c4cccc(C(F)(F)F)c4-c4ccc(C(F)(F)F)cc4)cc3C2)CC1 (stereo not drawn) [Example 22] | 184 to 186
COCC(=O)N1CCN(C2Cc3ccc(NC(=O)c4cccc(C)c4-c4ccc(C(F)(F)F)cc4)cc3C2)CC1 (stereo not drawn) [Example 26] | 161 to 162
COC(=O)N1CCN(C2Cc3ccc(NC(=O)c4cccc(C)c4-c4ccc(F)cc4)cc3C2)CC1 (stereo not drawn) [Example 37] | 141 to 142
COC(=O)N1CCN(C2Cc3ccc(NC(=O)c4cccc(OC)c4-c4ccc(C(F)(F)F)cc4)cc3C2)CC1 (stereo not drawn) [Example 38] | 176 to 178
COC(=O)N1CCN(C2Cc3ccc(NC(=O)c4ccccc4-c4ccccc4)cc3C2)CC1 (stereo not drawn) [Example 39] | 164 to 168
COC(=O)N1CCN(C2Cc3ccc(NC(=O)c4ccccc4-c4ccc(C)cc4)cc3C2)CC1 (stereo not drawn) [Example 41] | 136 to 138

Other lines, results leading:

melting point [°C] | SMILES
161 to 163 | COC(=O)N1CCN(C2Cc3ccc(NC(=O)c4cccc(C)c4-c4ccc(C(F)(F)F)cc4)cc3C2)CC1 (racemic) [Example 1, 6-Methyl-4′-trifluoromethyl-1,1′-biphenyl-N-[2[4-(methoxycarbonyl)-piperazino]-indan-5-yl]-2-carboxamide]
236 to 238 | Cc1cccc(C(=O)Nc2ccc3c(c2)CC(N2CCN(c4ccccc4)CC2)C3)c1-c1ccc(C(F)(F)F)cc1 (stereo not drawn) [Example 2]
209 to 210 | Cc1cccc(C(=O)Nc2ccc3c(c2)CC(N2CCN(C)CC2)C3)c1-c1ccc(C(F)(F)F)cc1 (stereo not drawn) [Example 3]
188 to 191 | Cc1cccc(C(=O)Nc2ccc3c(c2)CC(N2CCN(Cc4ccccc4)CC2)C3)c1-c1ccc(C(F)(F)F)cc1 (stereo not drawn) [Example 4]
163 to 164 | COC(=O)N1CCN([C@@H]2Cc3ccc(NC(=O)c4cccc(C)c4-c4ccc(C(F)(F)F)cc4)cc3C2)CC1 [Example 14, (R)-6-Methyl-4′-trifluoromethyl-1,1′-biphenyl-N-[2-[4-(methoxycarbonyl)-piperazino]indan-5-yl]-2-carboxamide]
153 to 154 | Cc1ccc(S(=O)(=O)N2CCN(C3Cc4ccc(NC(=O)c5cccc(C)c5-c5ccc(C(F)(F)F)cc5)cc4C3)CC2)cc1 (stereo not drawn) [Example 23]
205 to 208 | Cc1cccc(C(=O)Nc2ccc3c(c2)CC(N2CCN(S(C)(=O)=O)CC2)C3)c1-c1ccc(C(F)(F)F)cc1 (stereo not drawn) [Example 24]
158 to 160 | Cc1cccc(C(=O)Nc2ccc3c(c2)CC(N2CCN(C(=O)c4ccncc4)CC2)C3)c1-c1ccc(C(F)(F)F)cc1 (stereo not drawn) [Example 25]
217 to 218 | Cc1cccc(C(=O)Nc2ccc3c(c2)CC(N2CCN(C(=O)N(C)C)CC2)C3)c1-c1ccc(C(F)(F)F)cc1 (stereo not drawn) [Example 27]
120 to 123 | Cc1cccc(C(=O)Nc2ccc3c(c2)CC(N2CCN(C(=O)c4ccccc4)CC2)C3)c1-c1ccc(C(F)(F)F)cc1 (stereo not drawn) [Example 28]
160 to 161 | Cc1cccc(C(=O)Nc2ccc3c(c2)CC(N2CCN(C(=O)COCc4ccccc4)CC2)C3)c1-c1ccc(C(F)(F)F)cc1 (stereo not drawn) [Example 29]
86 to 88 | Cc1cccc(C(=O)Nc2ccc3c(c2)CC(N2CCN(C(=O)CO)CC2)C3)c1-c1ccc(C(F)(F)F)cc1 (stereo not drawn) [Example 30]
190 to 194 | Cc1cccc(C(=O)Nc2ccc3c(c2)CC(N2CCN(Cc4ccccn4)CC2)C3)c1-c1ccc(C(F)(F)F)cc1 (stereo not drawn) [Example 31, 6-methyl-4′-trifluoromethyl-1,1′-biphenyl-N-[2-[4-(2-pyridinylmethyl)piperazino]indan-5-yl]-2-carboxamide]

test system: apolipoprotein B (apo B) secretion; assay: apo B assay; assay type: cell-based; settings: not given
Excerpt: as §1

IC50 [nM] | SMILES
~2 | COC(=O)N1CCN([C@@H]2Cc3ccc(NC(=O)c4cccc(C)c4-c4ccc(C(F)(F)F)cc4)cc3C2)CC1 [Example 14, (R)-6-Methyl-4′-trifluoromethyl-1,1′-biphenyl-N-[2-[4-(methoxycarbonyl)-piperazino]indan-5-yl]-2-carboxamide]

test system: not listed separately; assay: in vivo lowering of plasma triglycerides and cholesterol; settings: dose of 5 mg/kg p.o.
Excerpt: as §1

SMILES | plasma cholesterol | plasma triglycerides
COC(=O)N1CCN([C@@H]2Cc3ccc(NC(=O)c4cccc(C)c4-c4ccc(C(F)(F)F)cc4)cc3C2)CC1 [Example 14, (R)-6-Methyl-4′-trifluoromethyl-1,1′-biphenyl-N-[2-[4-(methoxycarbonyl)-piperazino]indan-5-yl]-2-carboxamide] | lowers | lowers
